How the values were obtained:
Aspergillus niger = assay: USP Antimicrobial Preservatives Effectiveness Test, A. niger; type: cell-based; conditions: DDAIP formulation of Example 1
Description: (§1) Thus, in the presence of Pseudomonas aeruginosa, […], Candida albicans, Streptococcus aureus, and Escherichia coli after 7 days of study less than 10 cfu/ml remained, with Aspergillus niger this value was observed after 21 days of study.

microorganism growth = assay: Visual microorganism growth testing of formulations; type: cell-based; conditions: room temperature and refrigerator conditions; test period of 2 months
Method: Additional formulations (such as in the examples that follow) were prepared and submitted to visual microorganism growth testing at room temperature (RT) and refrigerator conditions. The examples given below constitute some typical samples of various formulations prepared and tested.

Escherichia coli = assay: USP Antimicrobial Preservatives Effectiveness Test, E. coli; type: cell-based; conditions: DDAIP formulation of Example 1
Description: as §1

Pseudomonas aeruginosa = assay: USP Antimicrobial Preservatives Effectiveness Test, P. aeruginosa; type: cell-based; conditions: DDAIP formulation of Example 1
Description: as §1

stratum corneum proteins = conditions: FIG. 1; compared with control; cited from earlier work
Streptococcus aureus = assay: USP Antimicrobial Preservatives Effectiveness Test, S. aureus; type: cell-based; conditions: DDAIP formulation of Example 1
Description: as §1

Candida albicans = assay: USP Antimicrobial Preservatives Effectiveness Test, C. albicans; type: cell-based; conditions: DDAIP formulation of Example 1
Description: as §1

CCCCCCCCCCCCOC(=O)C(C)N(C)C (stereo not shown) [DDAIP, Dodecyl 2-(N,N-dimethylamino)propionate]
A. niger (cfu/ml), 7 days (Aspergillus niger; 7 days): 1.40E+03 cfu/ml
A. niger (cfu/ml), 14 days (Aspergillus niger; 14 days): 3.00E+02 cfu/ml
A. niger (cfu/ml), Time Zero (Aspergillus niger; day zero count): 3.05E+05 cfu/ml
visual microorganism growth (microorganism growth): no growth was observed
E. coli (cfu/ml), 7 days (Escherichia coli; 7 days): <1 cfu/ml
E. coli (cfu/ml), 14 days (Escherichia coli; 14 days): <1 cfu/ml
E. coli (cfu/ml), Time Zero (Escherichia coli; day zero count): 5.70E+05 cfu/ml
P. aeruginosa (cfu/ml), 7 days (Pseudomonas aeruginosa; 7 days): <10 cfu/ml
P. aeruginosa (cfu/ml), 14 days (Pseudomonas aeruginosa; 14 days): <10 cfu/ml
P. aeruginosa (cfu/ml), 21 days (Pseudomonas aeruginosa; 21 days): <10 cfu/ml
P. aeruginosa (cfu/ml), 28 days (Pseudomonas aeruginosa; 28 days): <10 cfu/ml
P. aeruginosa (cfu/ml), Time Zero (Pseudomonas aeruginosa; day zero count): 3.55E+05 cfu/ml
number of free thiol groups of stratum corneum proteins (effect on protein domain) (stratum corneum proteins): effect on the protein domain
S. aureus (cfu/ml), 7 days (Streptococcus aureus; 7 days): <10 cfu/ml
S. aureus (cfu/ml), 14 days (Streptococcus aureus; 14 days): <10 cfu/ml
S. aureus (cfu/ml), 21 days (Streptococcus aureus; 21 days): <10 cfu/ml
S. aureus (cfu/ml), 28 days (Streptococcus aureus; 28 days): <10 cfu/ml
S. aureus (cfu/ml), Time Zero (Streptococcus aureus; day zero count): 6.90E+05 cfu/ml
C. albicans (cfu/ml), 7 days (Candida albicans; 7 days): <10 cfu/ml
C. albicans (cfu/ml), 14 days (Candida albicans; 14 days): <10 cfu/ml
C. albicans (cfu/ml), Time Zero (Candida albicans; day zero count): 3.45E+05 cfu/ml

CCO [ethanol, reference compound]
number of free thiol groups of stratum corneum proteins (effect on protein domain) (stratum corneum proteins): affects protein domain
